Here are results for 3 molecules from patent publication US6380257B1, “Aromatic di-keto derivatives, processes for their production and their use as a pharmaceutical” (Aventis Pharma Deutschland GmbH, priority 1999, dated 2002).

Data set [1] concerns the target T1, glucose-6-phosphate translocase from rat liver microsomes (Rattus norvegicus, UniProt F7EWB7).
T1 construct: glucose-6-phosphate translocase from rat liver microsomes; from tissue; host or cells: rat liver microsomes
T1 sequence (F7EWB7 1-429): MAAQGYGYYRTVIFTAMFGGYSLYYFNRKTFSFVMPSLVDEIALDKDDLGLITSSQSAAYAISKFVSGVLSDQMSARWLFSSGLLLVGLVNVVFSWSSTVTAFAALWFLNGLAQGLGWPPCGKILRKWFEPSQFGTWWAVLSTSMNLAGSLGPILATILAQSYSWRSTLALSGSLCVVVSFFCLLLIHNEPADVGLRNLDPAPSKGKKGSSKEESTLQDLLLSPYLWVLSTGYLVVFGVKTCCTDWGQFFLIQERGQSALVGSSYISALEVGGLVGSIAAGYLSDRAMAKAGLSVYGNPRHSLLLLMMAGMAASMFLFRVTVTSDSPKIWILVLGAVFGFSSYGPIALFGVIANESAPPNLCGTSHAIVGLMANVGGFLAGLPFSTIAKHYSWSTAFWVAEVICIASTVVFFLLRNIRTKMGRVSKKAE
Kind of data set: Inhibition of glucose-6-phosphate translocase from rat liver microsomes. Type of data set: biochemical. For orientation: Microsomes from liver hold many membrane-bound enzymes, among them those of drug oxidation.

A short description of data set [2]: Stability of mumbaistatin in solution. The data set is classed as physicochemical.
In data set [3] the target is T2, microsomal glucose-6-phosphatase (Rattus norvegicus, UniProt P43428).
T2 construct: from tissue; host or cells: liver microsomes (rat inferred)
T2 sequence (P43428 1-357): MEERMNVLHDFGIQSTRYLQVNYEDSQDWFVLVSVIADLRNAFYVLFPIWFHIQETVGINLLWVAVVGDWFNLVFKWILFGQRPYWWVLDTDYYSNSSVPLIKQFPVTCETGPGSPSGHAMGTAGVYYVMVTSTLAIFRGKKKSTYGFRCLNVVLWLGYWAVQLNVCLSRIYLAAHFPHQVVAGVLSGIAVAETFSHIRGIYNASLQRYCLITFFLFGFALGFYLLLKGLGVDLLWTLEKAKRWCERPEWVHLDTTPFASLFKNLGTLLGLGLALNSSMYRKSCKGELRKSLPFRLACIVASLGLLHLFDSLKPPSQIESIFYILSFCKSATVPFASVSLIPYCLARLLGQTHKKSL
The data set can be described thus: Inhibition of microsomal glucose-6-phosphatase. Type of data set: biochemical.

Like-named read-outs stand apart in the source and are kept apart here. Bounds are passed on as bounds.

In general, IC50 refers to the concentration at which inhibition is half-maximal. Consider `COC(=O)CC1CCC2(O1)OC1(OC(=O)c3c(OC)cc4c(c31)C(=O)c1c(O)cccc1C4=O)c1c(OC)cccc12` (stereo not shown) [XIXB], for which the IC50 in data set [1] (read-out: Inhibition of glucose-6-phosphate translocase: IC50) was above 100000 nM.
For `NC(=O)c1c(O)cc2c(c1C(=O)c1c(O)cccc1C1(O)CCC(CC(=O)O)O1)C(=O)c1c(O)cccc1C2=O` (stereo not shown) [XXIIIA], in data set [1] (read-out: inhibits glucose-6-phosphate translocase with an IC50), the IC50 is around 1000 nM.
Consider mumbaistatin, for which the IC50 in data set [1] (rat liver microsomes, listed as mumbaistain, read-out: Inhibition of glucose-6-phosphate translocase, IC50) is around 5 nM; in data set [1] (rat liver microsomes, read-out: Inhibition of glucose-6-phosphate translocase, IC50) it was 5 nM. Also, the “stability in solution at acid pH” value in data set [2] (acid pH, conversion e.g. to compound of formula XIXD) is “rapidly undergoes a complex conversion”. In data set [2] (pH of around 6 to 9), the stability in solution entry is listed as “limited stability”. Further, in data set [3], the “Inhibition of microsomal glucose-6-phosphatase in 10 μM solution” value is “activity was not demonstrable”.
